The results in this text go back to patent US9340538B2, “Dihydropyrimidine compounds and their application in pharmaceuticals” (SUNSHINE LAKE PHARMA CO., LTD., priority 2013, dated 2016).

The subject of this experiment is HBV. Description: In-vitro anti-HBV activity in stable HBV-producing cell line (HepG2.2.15), HBV DNA in culture fluid by qPCR. In kind it is cell-based. The conditions noted are these: Hepatitis B virus, read-out: HBV (% Inh.) (500 nmol). On the procedure:
In-Vitro Anti-HBV Activity of Compounds in Stable HBV-Producing Cell Line (HepG2.2.15)
HBV DNA contents in cell culture fluid were detected by the qPCR-based assay and percents of HBV inhibition by compounds (% Inh) were calculated. Specific procedures are as follows:
HepG2.2.15 cells were seeded into each well of 96-well plates, 40,000 cells per well. Cells were treated with cell culture medium containing compounds 24 hours after cell seeding. Each compound to detected percent inhibition was in duplicate and the final concentration of each compound was 500 nmol in each well. The compound-containing mediums were refreshed on day 4 post cell seeding. Culture media were collected from the HepG2.2.15 plates on day 7 post cell seeding followed by HBV DNA extraction.
HBV DNA extraction: using QIAamp 96 DNA Blood Kit (QIAGEN 51161).
PCR for quantification: PCR mix was prepared according to PCR system; PCR mix was dispensed to 384-well optical reaction plates (special for quantification); The standard diluted proportionally was added; The sample was added; The plates were sealed with optical adhesive film; PCR system was performed according to programs.
Percent of HBV inhibition of DNA replication by compound was calculated using the following equation: % Inh.=[1-HBV DNA quantity of sample/HBV DNA quantity of DMSO control]*100. II. Assay Results
(In general: Quantitative PCR measures a nucleic acid by following its amplification.)

[1] abbreviates: 168 h, 500 nmol final concentration, HepG2.2.15 cells, HBV DNA in culture media on day 7 post seeding, vs DMSO control.

Read-outs that look alike come from different tables or passages of the source.

Take `CCOC(=O)C1=C(CN2CC(C)(C)OC[C@H]2C(=O)O)NC(c2nccs2)=NC1c1ccc(F)cc1Cl` (stereo partly drawn) [Example 23, (3S)-4-((6-(2-chloro-4-fluorophenyl)-5-(ethoxycarbonyl)-2-(thiazol-2-yl)-3,6-dihydropyrimidin-4-yl)methyl)-6,6-dimethylmorpholine-3-carboxylic acid]: the inhibition at 0.5 µM under setting [1] came to 45%.

`CCOC(=O)C1=C(CN2CCOC[C@H]2COC(=O)[C@@H](N)C(C)C)NC(c2nccs2)=NC1c1ccc(F)cc1Br` (stereo partly drawn) [Example 49, Ethyl 6-(((S)-3-((((S)-2-amino-3-methylbutanoyl)oxy)methyl)morpholino)methyl)-4-(2-bromo-4-fluorophenyl)-2-(thiazol-2-yl)-1,4-dihydropyrimidine-5-carboxylate]: under setting [1], the inhibition at 0.5 µM is 96.2%.

Take `CCOC(=O)C1=C(CN2CCOC[C@H]2C(=O)NOC)NC(c2nccs2)=NC1c1ccc(F)cc1Br` (stereo partly drawn) [Example 53, Ethyl 4-(2-bromo-4-fluorophenyl)-6-(((S)-3-(methoxycarbamoyl)morpholino)methyl)-2-(thiazol-2-yl)-1,4-dihydropyrimidine-5-carboxylate]: the inhibition at 0.5 µM under setting [1] is 92.6%.

As for `CCOC(=O)C1=C(CN2CCOCC2C(=O)O)NC(c2nc(C(F)(F)F)cs2)=NC1c1ccc(Cl)cc1Cl` (stereo not shown) [Example 119, 4-((6-(2,4-dichlorophenyl)-5-(ethoxycarbonyl)-2-(4-(trifluoromethyl)thiazol-2-yl)-3,6-dihydropyrimidin-4-yl)methyl)morpholine-3-carboxylic acid], the inhibition at 0.5 µM under setting [1] amounted to 94%.

On to `CCOC(=O)C1=C(CN2CCOC[C@H]2C(=O)O)NC(c2nc(CC(=O)OC)cs2)=NC1c1ccc(F)cc1Br` (stereo partly drawn) [Example 61, (3S)-4-((6-(2-bromo-4-fluorophenyl)-5-(ethoxycarbonyl)-2-(4-(2-methoxy-2-oxoethyl)thiazol-2-yl)-3,6-dihydropyrimidin-4-yl)methyl)morpholine-3-carboxylic acid], for which the inhibition at 0.5 µM under setting [1] came to 91.1%.

In the case of `CCOC(=O)C1=C(CN2CCOCC2C(=O)O)NC(c2ncc(F)s2)=NC1c1ccc(F)cc1Cl` (stereo not shown) [Example 121, 4-((6-(2-chloro-4-fluorophenyl)-5-(ethoxycarbonyl)-2-(5-fluorothiazol-2-yl)-3,6-dihydropyrimidin-4-yl)methyl)morpholine-3-carboxylic acid], the inhibition at 0.5 µM under setting [1] was 48.5%.

Regarding `CCOC(=O)C1=C(CN2CCOCC2C(=O)NC(C)C)NC(c2nccs2)=NC1c1ccc(Cl)cc1Cl` (stereo not shown) [Example 81, Ethyl 4-(2,4-dichlorophenyl)-6-((3-(isopropylcarbamoyl)morpholino)methyl)-2-(thiazol-2-yl)-1,4-dihydropyrimidine-5-carboxylate], the inhibition at 0.5 µM under setting [1] amounted to 91.9%.

As for `CCOC(=O)C1=C(CN2CCOCC2C(=O)OC(C)C)NC(c2nccs2)=NC1c1ccc(F)cc1Br` (stereo not shown) [Example 77, Isopropyl 4-((6-(2-bromo-4-fluorophenyl)-5-(ethoxycarbonyl)-2-(thiazol-2-yl)-3,6-dihydropyrimidin-4-yl)methyl)morpholine-3-carboxylate], the inhibition at 0.5 µM under setting [1] was 91.9%.

With `CCOC(=O)C1=C(CN2CCOCC2C(=O)O)NC(c2ncn(C)n2)=NC1c1ccc(F)cc1Br` (stereo not shown) [Example 123, 4-((6-(2-bromo-4-fluorophenyl)-5-(ethoxycarbonyl)-2-(1-methyl-1H-1,2,4-triazol-3-yl)-3,6-dihydropyrimidin-4-yl)methyl)morpholine-3-carboxylic acid], the inhibition at 0.5 µM under setting [1] was 37.5%.

As to `CCOC(=O)C1=C(CN2CCOC(CCCO)C2)NC(c2nccs2)=NC1c1ccc(F)cc1Br` (stereo not shown) [Example 133, Ethyl 4-(2-bromo-4-fluorophenyl)-6-((2-(3-hydroxypropyl)morpholino)methyl)-2-(thiazol-2-yl)-1,4-dihydropyrimidine-5-carboxylate], the inhibition at 0.5 µM under setting [1] was found to be 92.6%.

Regarding `CCOC(=O)C1=C(CN2CCOC(C(=O)O)C2)NC(c2nccs2)=NC1c1ccc(F)cc1Cl` (stereo not shown) [Example 10, 4-((6-(2-chloro-4-fluorophenyl)-5-(ethoxycarbonyl)-2-(thiazol-2-yl)-3,6-dihydropyrimidin-4-yl)methyl)morpholine-2-carboxylic acid], the inhibition at 0.5 µM under setting [1] amounted to 89.7%.

For `CCOC(=O)C1=C(CN2CCOCC2C(=O)O)NC(c2nncs2)=NC1c1ccc(Cl)cc1Cl` (stereo not shown) [Example 70, 4-((6-(2,4-dichlorophenyl)-5-(ethoxycarbonyl)-2-(1,3,4-thiadiazol-2-yl)-3,6-dihydropyrimidin-4-yl)methyl)morpholine-3-carboxylic acid], the inhibition at 0.5 µM under setting [1] was determined as 63.6%.

For `CCOC(=O)C1=C(CN2CCOCC2C(=O)O)NC(c2nccn2C)=NC1c1ccc(F)cc1Br` (stereo not shown) [Example 125, 4-((6-(2-bromo-4-fluorophenyl)-5-(ethoxycarbonyl)-2-(1-methyl-1H-imidazol-2-yl)-3,6-dihydropyrimidin-4-yl)methyl)morpholine-3-carboxylic acid], the inhibition at 0.5 µM under setting [1] was 92.5%.

`CCOC(=O)C1=C(CN2CC(C)(C)OC[C@H]2C(=O)OC)NC(c2nccs2)=NC1c1ccc(Cl)cc1Cl` (stereo partly drawn) [Example 24, Methyl (3S)-4-((6-(2,4-dichlorophenyl)-5-(ethoxycarbonyl)-2-(thiazol-2-yl)-3,6-dihydropyrimidin-4-yl)methyl)-6,6-dimethylmorpholine-3-carboxylate]: the inhibition at 0.5 µM under setting [1] worked out at 56.1%.

Consider `CCOC(=O)C1=C(CN2CC(C)(C)OC[C@H]2C(=O)O)NC(c2nccs2)=NC1c1ccc(Cl)cc1Cl` (stereo partly drawn) [Example 21, (3S)-4-((6-(2,4-dichlorophenyl)-5-(ethoxycarbonyl)-2-(thiazol-2-yl)-3,6-dihydropyrimidin-4-yl)methyl)-6,6-dimethylmorpholine-3-carboxylic acid], for which the inhibition at 0.5 µM under setting [1] is 51.2%.

Consider `CCOC(=O)C1=C(CN2CCOCC2C(=O)O)NC(c2nccs2)=NC1c1ccc(F)cc1Br` (stereo not shown) [Example 3, 4-((6-(2-bromo-4-fluorophenyl)-5-(ethoxycarbonyl)-2-(thiazol-2-yl)-3,6-dihydropyrimidin-4-yl)methyl)morpholine-3-carboxylic acid], for which the inhibition at 0.5 µM under setting [1] came to 84.5%.

`CCOC(=O)C1=C(CN2CCOC[C@H]2C(=O)NCCO)NC(c2nccs2)=NC1c1ccc(F)cc1Br` (stereo partly drawn) [Example 54, Ethyl 4-(2-bromo-4-fluorophenyl)-6-(((S)-3-((2-hydroxyethyl)carbamoyl)morpholino)methyl)-2-(thiazol-2-yl)-1,4-dihydropyrimidine-5-carboxylate]: the inhibition at 0.5 µM under setting [1] stood at 91%.

Consider `CCOC(=O)C1=C(CN2CCOCC2C(=O)OC)NC(c2nccs2)=NC1c1ccc(F)cc1Br` (stereo not shown) [Example 51, Methyl 4-((6-(2-bromo-4-fluorophenyl)-5-(ethoxycarbonyl)-2-(thiazol-2-yl)-3,6-dihydropyrimidin-4-yl)methyl)morpholine-3-carboxylate], for which, where the note is “HepG2.2.15, 168 h”, the inhibition at 0.5 µM is 91.3%.

Consider `CCOC(=O)C1=C(CN2CCOCC2C(=O)OCOC(=O)OC(C)C)NC(c2nccs2)=NC1c1ccc(Cl)cc1Cl` (stereo not shown) [Example 80, ((Isopropoxycarbonyl)oxy)methyl 4-((6-(2,4-dichlorophenyl)-5-(ethoxycarbonyl)-2-(thiazol-2-yl)-3,6-dihydropyrimidin-4-yl)methyl)morpholine-3-carboxylate], for which the inhibition at 0.5 µM under setting [1] was found to be 91.9%.

On to `CCOC(=O)C1=C(CN2CCOC[C@H]2C(=O)NCCOC(C)=O)NC(c2nccs2)=NC1c1ccc(F)cc1Br` (stereo partly drawn) [Example 55, Ethyl 6-(((S)-3-((2-acetoxyethyl)carbamoyl)morpholino)methyl)-4-(2-bromo-4-fluorophenyl)-2-(thiazol-2-yl)-1,4-dihydropyrimidine-5-carboxylate], for which the inhibition at 0.5 µM under setting [1] is 93%.

As for `CCOC(=O)C1=C(CN2CCOCC2C(=O)NC)NC(c2nccs2)=NC1c1ccc(F)cc1Br` (stereo not shown) [Example 136, Ethyl 4-(2-bromo-4-fluorophenyl)-6-((3-(methylcarbamoyl)morpholino)methyl)-2-(thiazol-2-yl)-1,4-dihydropyrimidine-5-carboxylate], under setting [1], the inhibition at 0.5 µM came to 95.8%.

For the compound `CCOC(=O)C1=C(CN2CCOCC2C(N)=O)NC(c2nccs2)=NC1c1ccc(F)cc1Cl` (stereo not shown) [Example 26, Ethyl 6-((3-carbamoylmorpholino)methyl)-4-(2-chloro-4-fluorophenyl)-2-(thiazol-2-yl)-1,4-dihydropyrimidine-5-carboxylate], the inhibition at 0.5 µM under setting [1] amounted to 96%.

In the case of `CCOC(=O)C1=C(CN2CCOCC2C(=O)OC(C)C)NC(c2nccs2)=NC1c1ccc(Cl)cc1Cl` (stereo not shown) [Example 78, Isopropyl 4-((6-(2,4-dichlorophenyl)-5-(ethoxycarbonyl)-2-(thiazol-2-yl)-3,6-dihydropyrimidin-4-yl)methyl)morpholine-3-carboxylate], the inhibition at 0.5 µM under setting [1] stood at 87.9%.

Regarding `CCOC(=O)C1=C(CN2CCOCC2C(=O)O)NC(c2nccs2)=NC1c1ccc(Cl)cc1Cl` (stereo not shown) [Example 5, 4-((6-(2,4-dichlorophenyl)-5-(ethoxycarbonyl)-2-(thiazol-2-yl)-3,6-dihydropyrimidin-4-yl)methyl)morpholine-3-carboxylic acid], the inhibition at 0.5 µM (HepG2.2.15, 168 h) worked out at 95%.

For `CCOC(=O)C1=C(CN2CCOCC2C(=O)O)NC(c2ncc(F)s2)=NC1c1ccc(Cl)cc1Cl` (stereo not shown) [Example 122, 4-((6-(2,4-dichlorophenyl)-5-(ethoxycarbonyl)-2-(5-fluorothiazol-2-yl)-3,6-dihydropyrimidin-4-yl)methyl)morpholine-3-carboxylic acid], the inhibition at 0.5 µM under setting [1] turned out to be 46.2%.
